In assay [1] the test system is Rattus norvegicus. Briefly: Tested for the dose that produced a 50% inhibition of the pressor response to AII in conscious normotensive rats administered intravenously. Type of assay: functional. The settings on record: iv, read-out: ID50 (the source's name).
The target in assay [2] is T1, Type-1 angiotensin II receptor B (Rattus norvegicus, UniProt P29089).
T1 sequence (P29089 whole entry): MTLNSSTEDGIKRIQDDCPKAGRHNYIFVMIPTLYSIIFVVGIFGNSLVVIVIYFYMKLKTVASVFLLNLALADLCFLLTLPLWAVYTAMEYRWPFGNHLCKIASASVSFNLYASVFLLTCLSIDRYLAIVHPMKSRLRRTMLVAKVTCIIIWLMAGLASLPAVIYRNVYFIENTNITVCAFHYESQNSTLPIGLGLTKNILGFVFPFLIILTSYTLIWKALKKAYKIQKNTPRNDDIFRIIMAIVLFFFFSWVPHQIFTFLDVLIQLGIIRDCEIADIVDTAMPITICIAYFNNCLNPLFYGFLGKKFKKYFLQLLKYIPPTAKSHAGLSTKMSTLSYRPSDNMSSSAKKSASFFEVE
Briefly: Tested for inhibition of [125I]- AII specific binding to rat mesenteric arteries, expressed as IC50.

For assay [3], the species on record is Oryctolagus cuniculus. The assay can be described thus: Tested for inhibition of AII-induced vasoconstriction of rabbit aorta. Type of assay: functional.
Assay [4] has as its system Canis familiaris. The assay can be described thus: Tested for po dose required to inhibit the pressor effect up to 20 hr in Angiotensin I infused dog. It counts as functional, Canis lupus familiaris.
For assay [5], the system named is Rattus norvegicus. The assay can be described thus: Tested for the dose that produced a 50% inhibition of the pressor response to AII in conscious normotensive rats administered intraduodenally. The note with it: intraduodenal, read-out: ID50 (the source's name). Type of assay: functional.
Assay [6] is filed under the species Oryctolagus cuniculus. The assay can be described thus: Tested for inhibition of AII-induced vasoconstriction of rabbit aorta measured at 30% inhibition. It counts as functional.
Assay [7] has as its system Canis familiaris. Briefly: Tested for lowering of mean arterial blood pressure at a dose of 10 mg/kg id, in 2-kidney, 1-clip Goldblatt renin dependent hypertensive dog for more than 12 hours. Type of assay: functional, Canis lupus familiaris.
For assay [8], the species on record is Rattus norvegicus. The assay can be described thus: Time required for effect of drug after washout of rat adrenal cortical membranes. It counts as functional.
The test system of assay [9] is Rattus norvegicus. Briefly: Tested for time for the pressor response to AII to recover 50% of its initial effect after intraduodenal dosing of 10 mg/kg. More on the design: dose 10 mg/kg. It counts as functional, organism-based.
Assay [10] addresses T2, Type-1 angiotensin II receptor (Homo sapiens, UniProt P30556).
T2 sequence (P30556 whole entry): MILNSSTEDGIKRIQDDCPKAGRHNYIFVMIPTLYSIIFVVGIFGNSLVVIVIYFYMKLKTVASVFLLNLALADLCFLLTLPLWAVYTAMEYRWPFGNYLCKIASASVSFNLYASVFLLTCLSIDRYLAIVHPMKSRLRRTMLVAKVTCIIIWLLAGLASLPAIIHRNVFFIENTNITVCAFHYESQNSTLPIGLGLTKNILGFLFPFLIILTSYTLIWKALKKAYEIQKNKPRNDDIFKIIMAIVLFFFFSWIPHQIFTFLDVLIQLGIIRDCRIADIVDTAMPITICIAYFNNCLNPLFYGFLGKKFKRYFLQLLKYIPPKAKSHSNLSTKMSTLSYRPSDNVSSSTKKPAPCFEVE
Briefly: Tested for Angiotensin II receptor, type 1 affinity in the presence of 0.25% BSA.

For assay [11], the target named is T2, Type-1 angiotensin II receptor. Briefly: Tested for Angiotensin II receptor, type 1 affinity in the absence of BSA.
The test system of assay [12] is Rattus norvegicus. The assay can be described thus: Tested for time for the pressor response to AII to recover 50% of its initial effect after intraduodenal dosing of 30 mg/kg. Type of assay: functional, organism-based. On the set-up: dose 30 mg/kg.
Assay [13] has as its target T2, Type-1 angiotensin II receptor. The assay can be described thus: Tested for binding affinity to Angiotensin II receptor, type 1.
For assay [14], the system named is Canis familiaris. The assay can be described thus: Tested for po dose required to inhibit the pressor effect up to 14 hr in Angiotensin I infused dog. It counts as functional, Canis lupus familiaris.
The target of assay [15] is T2, Type-1 angiotensin II receptor. The assay can be described thus: Tested for Angiotensin II receptor, type 1 affinity in the absence of bovine serum albumin (BSA).
Assay [16] shares this target. Briefly: Tested for Angiotensin II receptor, type 1 affinity in the presence of 0.25% bovine serum albumin (BSA).

Usually IC50 stands for the midpoint of a concentration-inhibition curve. Regarding `CCCCc1ncc(/C=C(\Cc2cccs2)C(=O)O)n1Cc1cc(Cl)c(C(=O)O)cc1Cl`, in the assay on Rattus norvegicus [1], the ED50 was determined as 0.68 mg/kg. The same compound returned a 50% inhibitory concentration (IC50) in [2] of 35.4 nM. The compound also came in with a Kb in the assay listed under Oryctolagus cuniculus [3] of 1.58 nM.

Turning to `CCCCc1ncc(/C=C(\Cc2cccs2)C(=O)O)n1Cc1ccc(C(=O)O)c2ccccc12`, in the assay with Canis familiaris [4], the Dose was determined as 10 mg/kg. Moreover, the ED50 came out at 3.8 mg/kg in the assay with Rattus norvegicus [5] and 0.05 mg/kg in the assay on Rattus norvegicus [1]. This compound had a Kb in the assay filed under Oryctolagus cuniculus [6] of 0.059 nM. The compound also returned a Mean blood pressure in the assay with Canis familiaris [7] of 35 mmHg. In the assay filed under Rattus norvegicus [8], this compound returned a TIME of 3 h. In addition, the T1/2 with Rattus norvegicus [9] was 2.42 h. Also, the IC50 is 31 nM in assay [10], 11.8 nM in assay [2] and 1.2 nM in [11].

Regarding `CCCCc1ncc(/C=C(\Cc2cccs2)C(=O)O)n1Cc1ccc(C(=O)O)c(Cl)c1`, the values for the ED50 with Rattus norvegicus [5] and in the assay with Rattus norvegicus [1] were 16 mg/kg and 0.12 mg/kg, respectively. In the assay with Rattus norvegicus [12], this compound had a T1/2 of 1.8 h. In [2], this compound yielded an IC50 of 1.04 nM. In the assay listed under Oryctolagus cuniculus [3], this compound gave a Kb of 0.13 nM.

As for `CCCCc1ncc(/C=C(\Cc2cccs2)C(=O)O)n1Cc1ccc(C(=O)O)c(Cl)c1Cl`, the ED50 with Rattus norvegicus [5] was 5.4 mg/kg; in the assay on Rattus norvegicus [1], 0.04 mg/kg. The same compound yielded a T1/2 in the assay with Rattus norvegicus [9] of 1.6 h. Also, the half-maximal inhibitory concentration (IC50) in [2] was determined as 0.16 nM. Besides, the Kb in the assay listed under Oryctolagus cuniculus [3] came to 0.18 nM.

For `CCCCc1ncc(/C=C(\Cc2cccs2)C(=O)O)n1Cc1ccccc1`, in [13], the half-inhibitory concentration (IC50) worked out at 440 nM.

As to `CCCCc1ncc(/C=C(\Cc2cccs2)C(=O)O)n1Cc1ccccc1Cl`, in assay [13], the IC50 stood at 4530 nM.

In the case of `CCCCc1ncc(/C=C(\Cc2cccs2)C(=O)O)n1Cc1ccc(C(=O)O)cc1Cl`, the ED50 was found to be 2.4 mg/kg in the assay with Rattus norvegicus [5] and 0.06 mg/kg in the assay on Rattus norvegicus [1]. Also, the T1/2 with Rattus norvegicus [9] was 2.5 h. Further, the IC50 in [2] was 1.45 nM. The same compound had a Kb in the assay filed under Oryctolagus cuniculus [3] of 0.02 nM.

`CCCCc1ncc(/C=C(\Cc2cccs2)C(=O)O)n1Cc1ccc(C(=O)O)cc1` [EPROSARTAN]: the ED50 in the assay with Rattus norvegicus [5] was found to be 5.5 mg/kg; with Rattus norvegicus [1] it was 0.08 mg/kg. For the same compound, the Dose in the assay on Canis familiaris [14] is 10 mg/kg. For the same compound, the half-maximal inhibitory concentration (IC50) amounted to 2 nM in [15] and 7.3 nM in assay [16]. The Mean blood pressure with Canis familiaris [7] was 35 mmHg. Also, in the assay listed under Rattus norvegicus [8], the TIME stood at 0.5 h. The T1/2 in the assay with Rattus norvegicus [9] was found to be 1.42 h. Besides, the Kb in the assay filed under Oryctolagus cuniculus [3] came to 0.21 nM.

These data come from ChEMBL document CHEMBL1152092, “A potent long-acting imidazole-5-acrylic acid angiotensin II AT-1 receptor antagonist” (Bioorg Med Chem Lett, 1994).
